In PMC7615677 (Science translational medicine, 2023):
≈ marks a conversion by molar mass, not a printed value. Read-outs that look alike come from different tables or passages of the source.

Legend:
[1] = In vitro cytotoxicity assays, all cell lines tested; format: cell-based; conditions: mouse, human, African green monkey
[2] = Solubility in biorelevant buffers; format: physicochemical
Protocol: The ionization constant (pKa), octanol-pH 7.4 buffer partition coefficient (Log D7.4), solubility in biorelevant buffers (FaSSIF-V2, FeSSIF-V2, FaSSGF and pH 7.4 phosphate buffered saline (PBS)) and Caco-2 permeability were determined according to previously published methods ([10]).

in vivo = conditions: both, Wistar Han, rat, po
Source text: Parameters monitored included morbidity/mortality, clinical signs, body weight, food consumption, hematology and serum clinical chemistry. Main study animals were killed on the day after the last dose and necropsied. Selected organs were weighed. Organ/tissue samples were fixed and preserved at necropsy. Following the macroscopic examination, selected organs/tissues were examined histopathologically and compared to the control group. Satellite animals were sampled for toxicokinetics on days 1 and 14, at various time-points after treatment.

[3] = tested on: BALB/c 3T3 mouse fibroblasts; assay: In vitro 3T3 Neutral Red Uptake (NRU) phototoxicity assay; format: cell-based; conditions: 3T3 NRU
Protocol: Extinction coefficients were 16131 and 8507 L mol^-1 cm^-1, respectively. An in vitro 3T3 Neutral Red Uptake (NRU) phototoxicity assay was then conducted using a 96-well cytotoxicity-based assay that utilizes normal BALB/c 3T3 mouse fibroblasts to measure the concentration-dependent reduction in neutral red uptake by the cells after exposure to test material either in the presence or absence of UVA light. The assay was performed according to OECD (Test No. 432) test guidance ([42]). Duplicate 96-well monolayers of 3T3 fibroblasts were exposed to serial dilutions of test material. One of the plates was exposed to 5 J/cm2 UVA while the other plate was kept in the dark. To assess viability, the NRU by cells exposed to the test chemical in the presence of UVA exposure was compared to the NRU by cells exposed to the test chemical in the absence of UVA exposure. The Photo-Irritation-Factor (PIF) and Mean Photo Effect (MPE) were calculated.

[4] = In vitro metabolism, cryopreserved hepatocytes; format: in vitro ADME, mouse
Protocol: Cell viability was determined using trypan blue exclusion. The incubation was performed on a plate shaker (Heidolph Titrimax 100, 900 rpm) placed in a humidified incubator (37°C, 7.5% CO2) for 240 min. The reaction was initiated with the addition of compound with samples taken periodically and quenched with the addition of acetonitrile containing internal standards (metolazone and diazepam). Quenched samples were maintained on ice for approximately 20-30 min, centrifuged (for 5 min) and the supernatant analyzed by LC-MS.
(§1) In vitro intrinsic clearance (CLint, μL/min/mg or μL/min/10^6 cells) values were calculated from the apparent first order degradation rate constant divided by the microsome concentration or the hepatocyte cell number (10^6 viable cells/mL). In vitro CLint values were then divided by the fraction unbound in the in vitro test system (to give CLint,u) and scaled to in vivo values (mL/min/kg) using published physiological scaling factors ([28]). Blood clearance in each species was then calculated using the well-stirred model of hepatic extraction (equation 2) where Q is the hepatic blood flow and fu,blood is calculated from fu,plasma/B:P: [2] PredictedCLblood=Q x fu,blood x CLint,u/Q+fu,blood x CLint,u
(§2) Blood clearance values were converted to plasma clearance by multiplying by the B:P.

[5] = In vitro metabolism, liver microsomes; format: in vitro ADME, human
Protocol: (§3) Compounds were spiked into microsomal matrix prepared in 0.1 M pH 7.4 phosphate buffer containing magnesium chloride (final concentration of 3.3 mM), equilibrated for 5-10 min at 37°C. The reaction was initiated with the addition of freshly prepared solution of NADPH (final 1.3 mM). Control samples without co-factor were included for comparison. Aliquots of the reaction mixtures were taken periodically over 60 min and quenched with acetonitrile containing internal standards (metolazone and diazepam). Quenched samples were maintained on ice for approximately 20-30 min, centrifuged (for 5 min) and the supernatant was analyzed by LC-MS.
as §1, §2

[6] = In vitro metabolism, liver microsomes; format: in vitro ADME; conditions: Rat
Protocol: as §3
In vitro intrinsic clearance (CLint, μL/min/mg or μL/min/10^6 cells) values were calculated from the apparent first order degradation rate constant divided by the microsome concentration or the hepatocyte cell number (10^6 viable cells/mL). In vitro CLint values were then divided by the fraction unbound in the in vitro test system (to give CLint,u) and scaled to in vivo values (mL/min/kg) using published physiological scaling factors ([28]). Blood clearance in each species was then calculated using the well-stirred model of hepatic extraction (equation 2) where Q is the hepatic blood flow and fu,blood is calculated from fu,plasma/B:P: [2] PredictedCLblood=Q x fu,blood x CLint,u/Q+fu,blood x CLint,u […]

[7] = tested on: HEK293F-derived mitochondria; assay: Calcium loading capacity (CLC) assessment; format: biochemical
Protocol: The CLC of frozen HEK293F-derived mitochondria was determined using a method based on that previously described for fresh rat liver mitochondria ([23]). Briefly, a buffer (130 mM Sucrose, 37.54 mM KCl, 2.5 mM KH2PO4, 5 mM HEPES) containing 0.5 mM Ca^2+ and supplemented with 15 mM succinate, 2.5 μM rotenone and 0.15 μg/ml cell impermeant Fluo 5N (Life Technologies), was added to each well of a 384 well microplate (control wells also contained 0.24 μl/well DMSO or 3 μM cyclosporine). Thawed mitochondria suspended at 0.6 mg/ml were added to all wells to initiate the assay, and the fluorescence measured every 5 minutes at 520 nm in a PHERAstar FS microplate reader (BMG LabTech, Aylesbury, UK), (25 reads over 2 hours). Area under the curve (AUC) values for the first 10 reads were exported and the concentration-response relationship was modelled using the following formula: y=((B-A)/(1+(10^X/10^C)^D)+A where B=max, A=min, C=IC50, D=slope. The fitted curves were then used to calculate a pXC50 value.

In vivo pharmacokinetics = assay: In vivo pharmacokinetics; set-up: species or system female BALB/c mice; conditions: for AUC(0-t) / AUC / Cmax / Cmax at 5 days: mice, 5 days; for AUC(0-t): read-out: AUC0-24 (first dose); for AUC: read-out: AUC96-120 (last dose); for Cmax: read-out: Cmax (first dose); for Cmax at 5 days: read-out: Cmax (last dose)
[8] = female, BALB/c, mouse, plasma, oral 3.6 mg/kg bid
[9] = female, BALB/c, mouse, plasma, oral 7.1 mg/kg bid
[10] = female, BALB/c, mouse, plasma, oral 12.5 mg/kg bid

Cc1[nH]c2nc(N)nc(C)c2c1-c1ccc(C#N)c2c1OCO2 [DNDI-6174]
CC50 [1]: > 37 µM | solubility ([2]; FaSSGF, pH 1.6, fassgf or other biorelevant, pH 1.6, read-out: Solubility FaSSGF): 1200 µg/mL (≈ 3900 µM) | solubility ([2]; FaSSIF-V2, pH 6.5, fassif, pH 6.5, read-out: Solubility FaSSIF): 11 µg/mL (≈ 35.8 µM) | solubility ([2]; FeSSIF-V2, pH 5.8, fessif, pH 5.8, read-out: Solubility FeSSIF): 54 µg/mL (≈ 176 µM) | Solubility FaSSGF ([2]; pH 1.6): 1.19 mg/mL (≈ 3870 µM) | solubility ([2]; phosphate buffered saline (PBS), pH 7.4, aqueous buffer, pH 7.4, read-out: Solubility PBS): 6.5 µg/mL (≈ 21.2 µM) | NOAEL at 14 days (in vivo): 80 mg/kg | risk of being phototoxic, in words [3]: discarded | Hepatocyte predicted in vivo CLplasma ([4]; Mouse): 17 mL/min/kg | hepatocyte CLint at 0.5 µM ([4]; mouse, cryopreserved hepatocytes): 9.7 ± 0.091 µL/min/1e6 cells | Microsome predicted in vivo CLplasma ([5]; Human): 0.86 mL/min/kg | In vitro Microsome CLint ([5]; Human, 2 independent experiments, ± standard error of estimate): 7.2 ± 1.2 µL/min/mg | microsomal CLint at 0.5 µM ([5]; human, liver microsomes, pH 7.4, Human, 2 independent experiments, ± standard error of estimate, read-out: In vitro Microsome CLint): 6.4 ± 0.75 µL/min/mg | Microsome predicted in vivo CLplasma [6]: 2.4 mL/min/kg | microsomal CLint at 0.5 µM ([6]; liver microsomes, pH 7.4, 2 independent experiments, read-out: In vitro Microsome CLint): 10 ± 0.79 µL/min/mg | Mean pXC50, calcium loading capacity ([7]; HEK mitochondria): 5 | XC50, reduction in calcium loading capacity ([7]; isolated HEK mitochondria): 10 µM | increase in Cmax over the 5-day dosing period (In vivo pharmacokinetics; bid dosing in mice): approximately 2 fold | clearance (In vivo pharmacokinetics; female, BALB/c, mouse, plasma, iv, 2 mg/kg, Mouse, read-out: Measured in vivo CLplasma): 7.5 mL/min/kg | AUC(0-t) (In vivo pharmacokinetics; [8]): 10600 ng·h/mL | AUC (In vivo pharmacokinetics; [8]): 15700 ng·h/mL | Cmax (In vivo pharmacokinetics; [8]): 600 ng/mL | Cmax at 5 days (In vivo pharmacokinetics; [8]): 1350 ng/mL | AUC(0-t) (In vivo pharmacokinetics; [9]): 35500 ng·h/mL | AUC (In vivo pharmacokinetics; [9]): 37000 ng·h/mL | Cmax (In vivo pharmacokinetics; [9]): 1930 ng/mL | Cmax at 5 days (In vivo pharmacokinetics; [9]): 3040 ng/mL | AUC(0-t) (In vivo pharmacokinetics; [10]): 94500 ng·h/mL | AUC (In vivo pharmacokinetics; [10]): 93300 ng·h/mL | Cmax (In vivo pharmacokinetics; [10]): 3830 ng/mL | Cmax at 5 days (In vivo pharmacokinetics; [10]): 6810 ng/mL | AUC(0-inf) (In vivo pharmacokinetics; female, BALB/c, plasma, Mouse, intravenous 2.0 mg/kg, read-out: Plasma AUC0-inf): 4470 ng·h/mL | half-life (In vivo pharmacokinetics; female, BALB/c, plasma, Mouse, oral 25 mg/kg, read-out: Apparent t1/2 (converted)): 222 min | AUC(0-inf) (In vivo pharmacokinetics; female, BALB/c, plasma, Mouse, oral 25 mg/kg, read-out: Plasma AUC0-∞): 75500 ng·h/mL
